{"source": "patent US20220016115A1", "about": "“USP19 INHIBITORS FOR USE IN THERAPY” (ALMAC DISCOVERY LIMITED, priority 2018, published 2022)"}
{"biological_target": "T1, USP19 (Homo sapiens, UniProt O94966)", "T1 sequence (O94966 1-1318)": "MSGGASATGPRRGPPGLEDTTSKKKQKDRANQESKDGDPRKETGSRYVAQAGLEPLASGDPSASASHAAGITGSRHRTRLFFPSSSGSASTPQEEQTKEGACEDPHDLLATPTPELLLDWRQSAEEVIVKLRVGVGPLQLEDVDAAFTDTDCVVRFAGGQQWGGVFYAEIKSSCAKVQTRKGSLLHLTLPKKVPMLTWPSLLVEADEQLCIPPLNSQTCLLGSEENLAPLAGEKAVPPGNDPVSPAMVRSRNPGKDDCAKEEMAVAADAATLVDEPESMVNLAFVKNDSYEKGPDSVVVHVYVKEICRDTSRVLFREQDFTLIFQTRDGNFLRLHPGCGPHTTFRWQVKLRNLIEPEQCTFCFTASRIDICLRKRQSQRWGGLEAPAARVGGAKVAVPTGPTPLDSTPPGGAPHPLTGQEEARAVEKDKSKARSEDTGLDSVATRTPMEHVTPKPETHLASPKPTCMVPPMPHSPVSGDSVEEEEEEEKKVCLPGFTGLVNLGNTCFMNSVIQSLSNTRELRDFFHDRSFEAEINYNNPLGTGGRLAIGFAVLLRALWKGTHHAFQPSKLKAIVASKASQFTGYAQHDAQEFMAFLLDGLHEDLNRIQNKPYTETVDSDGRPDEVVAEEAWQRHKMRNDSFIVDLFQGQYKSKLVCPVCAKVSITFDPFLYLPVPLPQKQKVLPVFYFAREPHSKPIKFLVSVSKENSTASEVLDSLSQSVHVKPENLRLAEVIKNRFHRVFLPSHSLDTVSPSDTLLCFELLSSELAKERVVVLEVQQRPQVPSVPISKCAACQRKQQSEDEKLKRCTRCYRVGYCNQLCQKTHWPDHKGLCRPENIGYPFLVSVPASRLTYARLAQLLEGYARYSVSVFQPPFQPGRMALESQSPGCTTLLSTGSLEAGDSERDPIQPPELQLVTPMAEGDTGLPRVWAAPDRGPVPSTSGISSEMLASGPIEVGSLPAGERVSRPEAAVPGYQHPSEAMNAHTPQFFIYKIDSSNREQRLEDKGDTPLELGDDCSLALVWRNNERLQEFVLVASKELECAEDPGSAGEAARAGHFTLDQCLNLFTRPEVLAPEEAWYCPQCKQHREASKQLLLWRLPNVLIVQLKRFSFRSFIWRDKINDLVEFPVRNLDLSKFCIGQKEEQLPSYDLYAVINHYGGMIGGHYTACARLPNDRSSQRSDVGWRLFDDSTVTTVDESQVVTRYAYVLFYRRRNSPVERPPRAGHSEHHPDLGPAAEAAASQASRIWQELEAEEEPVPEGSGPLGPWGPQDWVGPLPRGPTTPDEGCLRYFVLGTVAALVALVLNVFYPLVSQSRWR", "assay": "USP19 fluorescence polarisation (FP) homogeneous assay", "type": "biochemical", "set-up": "Full-length USP19 was purchased from Boston Biochem (E-576); purchased Boston Biochem E-576", "conditions": "Ubiquitin-Lys-TAMRA substrate, full-length USP19 2.5 nM, average of at least two duplicate experiments", "procedure": "Unless otherwise stated, all other reagents were purchased from Sigma. Enzymatic reactions were conducted in black flat bottom polystyrene 384-well plates (Nunc) and 30 μL total volume. […] Inhibitors were stored as 10 mM DMSO stocks in an inert environment (low humidity, dark, low oxygen, room temperature) using the Storage Pod System and serial dilutions were prepared in buffer just prior to the assay (from 200 μM to 2 μM, 8-18 data point curve). Following incubation at RT for 30 min, the enzymatic reactions were initiated by dispensing the Ub substrate (500 nM, 10 μL). FP was measured every 15 min over a period of 90 min (within the linear range of the assay) using a Synergy 4 plate reader (BioTek) exciting at 530 nm and measuring the amount of parallel and perpendicular light at 575 nm. The FP signal was subsequently normalised to the no compound control.", "units": {"IC50": "nM"}}
{"compound": "C[C@H](CC1CCCCC1)C(=O)N1CC[C@@](O)(Cn2cc(C(=O)N(C)C)c(-c3ccccc3F)cc2=O)C(C)(C)C1", "note": "[Example 205, 1-(((S)-1-((R)-3-Cyclohexyl-2-methylpropanoyl)-4-hydroxy-3,3-dimethylpiperidin-4-yl)methyl)-4-(2-fluorophenyl)-N,N-dimethyl-6-oxo-1,6-dihydropyridine-3-carboxamide]", "IC50": "< 500"}
{"compound": "C[C@H](CC1CCCCC1)C(=O)N1CC[C@@](O)(Cn2cc(C(=O)N(C)C)c(-c3ccccc3F)cc2=O)C2(CCCC2)C1", "note": "[Example 226, 1-(((S)-7-((R)-3-Cyclohexyl-2-methylpropanoyl)-10-hydroxy-7-azaspiro[4.5]decan-10-yl)methyl)-4-(2-fluorophenyl)-N,N-dimethyl-6-oxo-1,6-dihydropyridine-3-carboxamide]", "IC50": "< 500"}
{"compound": "C[C@H](CC1CCCCC1)C(=O)N1CC[C@@](O)(Cn2cc(C(=O)N(C)C)c(-c3ccccc3)cc2=O)C2(CCCC2)C1", "note": "[Example 211, 1-(((S)-7-((R)-3-Cyclohexyl-2-methylpropanoyl)-10-hydroxy-7-azaspiro[4.5]decan-10-yl)methyl)-N,N-dimethyl-6-oxo-4-phenyl-1,6-dihydropyridine-3-carboxamide]", "IC50": "< 500"}
{"compound": "CC(C)CC(C)C(=O)N1CCC(O)(Cn2cc(C(=O)N(C)C)c(-c3ccccc3)cc2=O)C2(CCCC2)C1", "note": "(centres unmarked) [Example 197, 1-((7-(2,4-Dimethylpentanoyl)-10-hydroxy-7-azaspiro[4.5]decan-10-yl)methyl)-N,N-dimethyl-6-oxo-4-phenyl-1,6-dihydropyridine-3-carboxamide]", "IC50": "< 500"}
{"compound": "C[C@H](CC(F)(F)F)C(=O)N1CC[C@@](O)(Cn2cnc(-c3cccc(F)c3)cc2=O)C2(CCCC2)C1", "note": "[Example 257, 6-(3-Fluorophenyl)-3-(((S)-10-hydroxy-7-((R)-4,4,4-trifluoro-2-methylbutanoyl)-7-azaspiro[4.5]decan-10-yl)methyl)pyrimidin-4(3H)-one]", "IC50": "< 500"}
{"compound": "C[C@H](CC(=O)N1CCC(O)(Cn2cnc(-c3ccccc3)cc2=O)C(C)(C)C1)c1ccccc1", "note": "(mixture of isomers) [Example 53, 3-(((S)-4-Hydroxy-3,3-dimethyl-1-((R)-3-phenylbutanoyl)piperidin-4-yl)methyl)-6-phenylpyrimidin-4(3H)-one and 3-(((R)-4-hydroxy-3,3-dimethyl-1-((R)-3-phenylbutanoyl)piperidin-4-yl)methyl)-6-phenylpyrimidin-4(3H)-one]", "IC50": "500 to 5000"}
{"compound": "C[C@H](CC1CCCCC1)C(=O)N1CCC(O)(Cn2cc(C(=O)N(C)C)c(Cl)cc2=O)C2(CCCC2)C1", "note": "(stereo partly drawn) [Example 144, 4-Chloro-1-((7-((R)-3-cyclohexyl-2-methylpropanoyl)-10-hydroxy-7-azaspiro[4.5]decan-10-yl)methyl)-N,N-dimethyl-6-oxo-1,6-dihydropyridine-3-carboxamide]", "IC50": "< 500"}
{"compound": "3-(((S)-10-Hydroxy-7-((2R,3R)-2-phenylpyrrolidine-3-carbonyl)-7-azaspiro[4.5]decan-10-yl)methyl)-6-phenylpyrimidin-4(3H)-one and 3-(((S)-10-Hydroxy-7-((2a3S)-2-phenylpyrrolidine-3-carbonyl)-7-azaspiro[4.5]decan-10-yl)methyl)-6-phenylpyrimidin-4(3H)-one [Example 260]", "IC50": "< 500"}
{"compound": "C[C@H](CC1CCCCC1)C(=O)N1CCC(O)(Cn2cnc(-c3cccc(CO)c3)cc2=O)C(C)(C)C1", "note": "(some centres unmarked) [Example 138]", "IC50": "< 500"}
{"compound": "O=C(c1cn(C[C@]2(O)CCN(C(=O)[C@H](CO)CC(F)(F)F)CC23CCCC3)c(=O)cc1-c1ccccc1)N1CCOCC1", "note": "[Example 248, 1-(((S)-10-Hydroxy-7-((S)-4,4,4-trifluoro-2-(hydroxymethyl)butanoyl)-7-azaspiro[4.5]decan-10-yl)methyl)-5-(morpholine-4-carbonyl)-4-phenylpyridin-2(1H)-one]", "IC50": "< 500"}
{"compound": "C[C@H](CC1CCC1)C(=O)N1CC[C@@](O)(Cn2cc(C(=O)N3CCNCC3)c(-c3ccccc3F)cc2=O)C(C)(C)C1", "note": "[Example 236, 1-(((S)-1-((R)-3-Cyclobutyl-2-methylpropanoyl)-4-hydroxy-3,3-dimethylpiperidin-4-yl)methyl)-4-(2-fluorophenyl)-5-(piperazine-1-carbonyl)pyridin-2(1 H)-one]", "IC50": "< 500"}
{"compound": "C[C@H](CC1CCCCC1)C(=O)N1CCC(O)(Cn2cnc(-c3ccsc3)cc2=O)C(C)(C)C1", "note": "(some centres unmarked) [Example 135]", "IC50": "< 500"}
{"compound": "C[C@H](CC(F)(F)F)C(=O)N1CC[C@@](O)(Cn2cnc(-c3ccccc3)cc2=O)C2(CCCC2)C1", "note": "[Example 255, 3-(((S)-10-Hydroxy-7-((R)-4,4,4-trifluoro-2-methylbutanoyl)-7-azaspiro[4.5]decan-10-yl)methyl)-6-phenylpyrimidin-4(3H)-one]", "IC50": "< 500"}
{"compound": "C[C@H](CC(F)(F)F)C(=O)N1CC[C@@](O)(Cn2cc(C(=O)N3CCOCC3)c(-c3ccccc3)cc2=O)C2(CCCC2)C1", "note": "[Example 250, 1-(((S)-10-Hydroxy-7-((R)-4,4,4-trifluoro-2-methylbutanoyl)-7-azaspiro[4.5]decan-10-yl)methyl)-5-(morpholine-4-carbonyl)-4-phenylpyridin-2(1H)-one]", "IC50": "< 500"}
{"compound": "CN(C)C(=O)c1cn(C[C@@]2(O)CCN(C(=O)[C@H](CO)CC3CCC3)CC2(C)C)c(=O)cc1-c1ccccc1", "note": "[Example 167, 1-(((R)-1-((S)-3-Cyclobutyl-2-(hydroxymethyl)propanoyl)-4-hydroxy-3,3-dimethylpiperidin-4-yl)methyl)-N,N-dimethyl-6-oxo-4-phenyl-1,6-dihydropyridine-3-carboxamide]", "IC50": "5000 to 50000"}
{"compound": "CC(C)N(C)C(=O)c1cn(C[C@]2(O)CCN(C(=O)[C@H](C)CC3CCCCC3)CC2(C)C)c(=O)cc1-c1ccccc1", "note": "[Example 120, 1-(((S)-1-((R)-3-Cyclohexyl-2-methylpropanoyl)-4-hydroxy-3,3-dimethylpiperidin-4-yl)methyl)-N-isopropyl-N-methyl-6-oxo-4-phenyl-1,6-dihydropyridine-3-carboxamide]", "IC50": "< 500"}
{"compound": "O=C(c1cn(C[C@]2(O)CCN(C(=O)[C@H](CO)CC(F)(F)F)CC23CCCC3)c(=O)cc1-c1ccccc1)N1CCNCC1", "note": "[Example 249, 1-(((S)-10-Hydroxy-7-((S)-4,4,4-trifluoro-2-(hydroxymethyl)butanoyl)-7-azaspiro[4.5]decan-10-yl)methyl)-4-phenyl-5-(piperazine-1-carbonyl)pyridin-2(1H)-one]", "IC50": "< 500"}
{"compound": "C[C@H](CC1CCCCC1)C(=O)N1CCC(O)(Cn2cc(C(=O)N(C)C)c(-c3ccc(CO)cc3)cc2=O)C2(CCCC2)C1", "note": "(stereo partly drawn) [Example 162, 1-((7-((R)-3-Cyclohexyl-2-methylpropanoyl)-10-hydroxy-7-azaspiro[4.5]decan-10-yl)methyl)-4-(4-(hydroxymethyl)phenyl)-N,N-dimethyl-6-oxo-1,6-dihydropyridine-3-carboxamide]", "IC50": "< 500"}
{"compound": "C[C@H](CC1CCCCC1)C(=O)N1CC[C@@](O)(Cn2cc(C(=O)N3CCNC[C@H]3CO)c(-c3ccccc3)cc2=O)C(C)(C)C1", "note": "[Example 208, 1-(((S)-1-((R)-3-Cyclohexyl-2-methylpropanoyl)-4-hydroxy-3,3-dimethylpiperidin-4-yl)methyl)-5-((S)-2-(hydroxymethyl)piperazine-1-carbonyl)-4-phenylpyridin-2(1H)-one]", "IC50": "< 500"}
{"compound": "C[C@H](CC1CCCCC1)C(=O)N1CC[C@@](O)(Cn2cc(C(=O)N3CCOCC3)c(-c3ccccc3)cc2=O)C2(CCCC2)C1", "note": "[Example 239, 1-(((S)-7-((R)-3-Cyclohexyl-2-methylpropanoyl)-10-hydroxy-7-azaspiro[4.5]decan-10-yl)methyl)-5-(morpholine-4-carbonyl)-4-phenylpyridin-2(1H)-one]", "IC50": "< 500"}
